The text below walks through data of patent publication EP0663826B1, “AMINO ACIDS CONTAINING PARENTERAL FORMULATIONS FOR THE TREATMENT OF HYPOTENSION AND RELATED PATHOLOGIES” (BOARD OF REGENTS THE UNIVERSITY OF TEXAS SYSTEM, priority 1991, dated 1993).

Structures are written as SMILES.

Test [1] relates to IL-1-Induced Hypotension in Dogs. Put plainly: IL-1-induced hypotension in dogs. The format is in vivo. The settings on record: for MAP after arginine administration: then L-arginine 400 mg/kg. The protocol:
• FIGURE 1 - Reversal of hypotension associated with the administration of IL-1 to dogs. The tracing shown is a representative experiment that was repeated four times. Each dog was anesthetized and […] as described herein, and baseline cardiovascular data were monitored for 30 minutes. IL-1 was dissolved in phosphate-buffered saline (pH 7.4) containing 1 mg/ml of dog albumin, and the resulting solution was infused intravenously for three minutes to deliver a dose of 50 µg/kg. MAP was continuously monitored; when a stable nadir was reached and maintained for more than 10 minutes or when MAP dropped below 50 mm Hg, NAA (20 mg/kg in 10 ml phosphate-buffered saline) was administered by intravenous infusion for 30 seconds. Sixty minutes after MAP was restored to baseline or higher values, L-arginine (400 mg/kg in 20 ml phosphate-buffered saline) was administered by slow intravenous infusion for 5 minutes. Anesthetized dogs given IL-1 (50 µg/kg) developed a progressive, moderately severe hypotension, with MAP decreasing from a baseline of 111 +/- 7 mm Hg to 80 +/- 2 mm Hg within about 3 hours. Hypotension was rapidly reversed by the intravenous administration of a single bolus dose of NAA (20 mg/kg, 88 umol/kg), with MAP increasing by from 46 +/- 9 mm Hg (58%_ to 125 +/- 8 mm Hg. • FIGURES 2A, 2B, 2C - Inhibition of IL-1-activated NO· production by N^ω-substituted arginine analogues. Figure 2A: Comparison of nitrite synthesis inhibition in smooth muscle cells by the L-isomers of NAA, NMA, and NNA and by the D-isomer of NMA. Figure 2B: Concentration dependence of nitrite synthesis inhibition in smooth muscle cells by NAA as a function of different L-arginine concentration in the culture medium. Confluent monolayers of smooth muscle cells in 96-well microtiter plates were treated with a combination of 100 ng/ml IL-1 and 50 ng/ml IFN-γ for 24 hours. Cells were then washed with Hanks' balanced salt solution, and fresh medium containing the indicated concentration of L-arginine was added. Points indicate means ± SD of nitrite production, expressed as percent of control, during a 16-hour exposure to arginine analogues (n = 3-4). Figure 2C: Effect of NAA on smooth muscle cell NO· synthase. Cytosol from cytokine-induced smooth muscle cells (∼2 µg protein) was incubated with 1 mM L-arginine, 0.5 mM NADPH, 1 mM dithiothreitol, 10 µM flavin-adenine dinucleotide, 10 µM tetrahydrobiopterin, and 0.1 U/ml dihydropteridine reductase in a total volume of 100 µL. The time course of Fe^2+-myoglobin oxidation was measured in the absence (control) or presence of 300 µM NAA (+NAA). […] FIGURE A: Time course of nitrite synthesis elicited by 40 ng/mL IL-1 alone (open circles) and by IL-1 in the presence of 50 ng/ml IFN-γ (open triangles). […] Inclusion of IL-1 receptor antagonist (40 µg/mL; filled symbols) in the culture medium inhibited nitrite production stimulated by both IL-1 and IL-1 plus IFN-γ. FIGURE B: IL-1 concentration dependence for smooth muscle cell nitrite production. Data points indicate nitrite produced during a 29-hour incubation with the indicated concentration of IL-1 alone (open circles) or in the presence of IL-1 plus 50 ng/mL IFN-γ (open triangles). All values are means ± SD for nitrite production by confluent smooth muscle cell monolayers grown in 96-well microtiter plates (60-80 X 10^3 cells per well; n = 3-4).
Experiments were conducted on healthy mongrel dogs that were free of microfilaria and weighed 25-28 kg each. […]

The subject of test [2] is endotoxin-induced shock in dogs. Nature of the test: Endotoxin-induced hypotension in dogs (with nitroglycerin and control dogs). The class given is in vivo. The protocol: Animals: Studies were carried out on 12 conditioned mongrel dogs (9 males and 3 females) weighing 22-32 kg (avg=25.3 kg). Animal care was in accordance with the recommendations of the American Association for Accreditation of Laboratory Animal Care, and met all standards prescribed by the Guide for the Care and Use of Laboratory Animals (Guide for the Care and Use of Laboratory Animals (1978) Dept. of Health, Education and Welfare, Washington, D.C. (Publ. No. 78-23). Animal protocols were approved by The University of Texas Animal Welfare committee. The dogs were fasted overnight prior to the day of experimentation. They were anesthetized with sodium pentobarbital (25 mg/kg i.v.). Dogs were then endotracheally intubated and ventilated with a piston-driven respirator (Harvard instruments) using room air at a tidal volume of 15 ml/kg and at a rate of 12 to 14 breaths per minute, adjusted to achieve a normal arterial pH and pCO2 (Instrumentation Laboratories lL1302 pH/Blood Gas Analyzer). Catheters were placed percutaneously into the femoral and pulmonary arteries; In the latter, a flow-directed thermal-dilation catheter was used (Abbott Critical Care Systems).
Physiologic measurements: Mean SAP and heart rate were continuously monitored (Parametron 7048 Monitoring System, Roche) and stored on a magnetic disk using an analog-to-digital converter (Scientific Solutions, Inc.). Cardiac output (CO) was determined as the mean of six measurements by thermal-dilution. Systemic vascular resistance was calculated as (SAP X80)/CO and expressed as dynes-sec/cm^5 (kg/s·cm^4).
Protocol: After the blood pressure and heart rate stabilized, endotoxin (40 µg/kg, in 10 ml of phosphate-buffered saline (PBS), pH 7.4) was infused i.v. over 2 minutes. This dose of endotoxin typically induces severe and often lethal cardiovascular collapse in the dog. Blood pressure was monitored, and when either SAP fell below 60 mm Hg or a stable nadir in systemic arterial pressure (SAP) was maintained for 10 minutes, L-NMA was administered (20 mg/kg in 5 ml of PBS i.v. over 1 min.). In most experiments, L-arginine (400 mg/kg in 20 ml PBS) was administered ten minutes later by i.v. infusion over 2 minutes. In control experiments, dogs without prior exposure to endotoxin received L-NMA alone. To simulate the hypotension observed in dogs receiving endotoxin, one group of dogs received a continuous i.v. infusion of nitroglycerin (2 mg/ml) at a rate adjusted to maintain the SAP at 60-70 mm Hg. Nitroglycerin-treated dogs then received L-NMA (20 mg/kg) and 20 minutes later L-arginine was administered ([…]).
Statistics: Statistical significance was evaluated using Student's test and either a one-tailed or two-tailed analysis as appropriate for comparisons.

As to `N=C(N)NCCC[C@H](N)C(=O)O` [L-arginine], the “average decrease in systemic vascular resistance following arginine” value in test [1] (IL-1-treated animals given NAA, then arginine) was 61%. The results for the “MAP after arginine administration” value in test [1] (IL-1-treated dogs given NAA) and in test [1] (control dogs given NAA) were 66 ± 27 mm Hg and “essentially at baseline levels”, respectively. Also, in test [2] (Figure 6 dog, endotoxin and 2 doses L-NMA), the “ΔSAP after L-arginine” value was -77 mm Hg. Also, the “Cardiac Output” value amounted to 2.99 ± 0.32 L/min in test [2] (Study 1: Endotoxin-treated dogs (n=4), means ± S.E., same sequence, baseline 2.99 ± 0.32) and 5.15 ± 1.08 L/min in test [2] (Study 2: Nitroglycerin-treated dogs (n=3), means ± S.E., baseline 3.14 ± 0.21). Also, the “Heart Rate” value is given as 119.5 ± 6.0 beats/min in test [2] (Study 1: Endotoxin-treated dogs (n=4), means ± S.E., same sequence, baseline 119.5 ± 6.0) and 148.7 ± 19.9 beats/min in test [2] (Study 2: Nitroglycerin-treated dogs (n=3), means ± S.E., baseline 143.7 ± 12.1). The “Systemic Vascular Resistance” value is given as 3565 ± 454 dynes-sec/cm^5 in test [2] (Study 1: Endotoxin-treated dogs (n=4), means ± S.E., same sequence, baseline 3565 ± 454); 3.565 ± 0.454 Kg/s·cm^4 in test [2] (Study 1: Endotoxin-treated dogs (n=4), means ± S.E., value in brackets); 1088 ± 491 dynes-sec/cm^5 in test [2] (Study 2: Nitroglycerin-treated dogs (n=3), means ± S.E., baseline 3294 ± 74); 1.088 ± 0.491 Kg/s·cm^4 in test [2] (Study 2: Nitroglycerin-treated dogs (n=3), value in brackets). The “Systemic Arterial Pressure” value is recorded as 128.3 ± 9.4 mmHg in test [2] (Study 1: Endotoxin-treated dogs (n=4), means ± S.E., sequence endotoxin 40 µg/kg, L-NMA 20 mg/kg, 10 min later L-arginine 400 mg/kg (measured 2 min later), baseline 128.3 ± 9.4) and 57.0 ± 13.0 mmHg in test [2] (Study 2: Nitroglycerin-treated dogs (n=3), means ± S.E., continuous nitroglycerin (2 mg/ml) titrated to SAP 65 mm Hg, then L-NMA 20 mg/kg, then L-arginine, baseline 129.3 ± 10.2). Also, the “effect on the pressor effect of L-NMA” value in test [2] (control dogs, L-arginine 400 mg/kg) was “fully reversed”.
